Data: paper PMC9516243, “Design of stapled peptide-based PROTACs for MDM2/MDMX atypical degradation and tumor suppression” (Theranostics, 2022)
“And” between values parts separate entries of the source, which are not always exact repeats. Identical values can stand only once.

Experiments:
circular dichroism = details: phosphate buffer (PB); pH 7.2; 20 °C; 10-50 uM
HCT116 p53^+/+ cells = assay: Cell viability assay (CCK-8); type: cell-based, human; details: CCK-8, 72 h incubation, absorbance 450 nm; read-out: IC50 (μM) HCT116 p53^+/+
Protocol: (§1) The human colon carcinoma cell line HCT116 p53^+/+ was obtained from the Cell Bank of the Chinese Academy of Sciences (Shanghai, China). HCT116 p53^-/- cells were generously provided by Prof. Vogelstein of Johns Hopkins University. Both cell lines were cultured in McCoy's 5A medium (Gibco, USA) containing 10% FBS, 100 units/ml penicillin, and 100 μg/ml streptomycin at 37 °C in a humidified incubator containing 5% CO2. Cell viability was measured using a Cell Counting Kit-8 (CCK-8) (Dojindo, Kumamoto, Japan) according to the manufacturer's instructions. In brief, the cells (5 × 10^3 cells/well in […] medium) were cultured for 24 h in 96-well microplates in a humidified 5% CO2 incubator at 37 °C and then treated with varying concentrations of compounds or 0.1% DMSO vehicle control.

HCT116 p53^-/- cells = assay: Cell viability assay (CCK-8); type: cell-based, human; details: CCK-8, 72 h incubation, absorbance 450 nm; read-out: IC50 (μM) HCT116 p53^-/-
Protocol: as §1

^24-108MDMX = molecular target: T1, ^24-108MDMX (Homo sapiens, UniProt O15151); assay: FP-based competitive binding assay; details: MDMX 40 nM, fluorescently tagged p53 peptide 20 nM, PBS pH 7.4, 30 min room temperature; mean of three independent measurements
T1 construct: ^24-108MDMX, and a fluorescently tagged p53-derived peptide
T1 sequence (O15151 24-108): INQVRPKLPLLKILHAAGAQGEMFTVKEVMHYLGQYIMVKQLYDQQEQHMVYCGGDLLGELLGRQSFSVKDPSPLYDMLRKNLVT
Protocol: (§2) An FP-based competitive or binding assay was established using ^25-109MDM2, ^24-108MDMX, and a fluorescently tagged p53-derived peptide as previously described. [34]-[36] For dose-dependent competitive binding experiments, MDM2 or MDMX protein (40 nM) was first incubated with TAMRA-p53 peptide (20 nM) in PBS (pH 7.4) on a Costar 96-well plate, to which a serially diluted solution of test peptide was added to a final volume of 125 μL. After 30 min of incubation at room temperature, the FP values were measured at λex = 530 nm and λem = 580 nm on a Tecan Infinite M1000 plate reader. For binding experiments, FITC-labeled SPMI-HIF2-1 (20 nM) was incubated with different concentrations of MDM2, MDMX, and VHL proteins. Curve fitting was performed using GraphPad Prism software, and Ki values were calculated as described previously. Three replicates and three independent experiments were performed.

^25-109MDM2 = molecular target: T2, ^25-109MDM2 (Homo sapiens, UniProt Q00987); assay: FP-based competitive binding assay; details: MDM2 40 nM, fluorescently tagged p53 peptide 20 nM, PBS pH 7.4, 30 min room temperature; mean of three independent measurements
T2 construct: established using ^25-109MDM2, ^24-108MDMX
Protocol: as §2

[1] = α-Helicity by CD spectroscopy; type: physicochemical; details: PB pH 7.2, 10-50 µM peptide, 20°C, calculated from [θ]222
Protocol: Peptides were dissolved in PB (pH = 7.2) to concentrations ranging from 10 to 50 µM. CD spectra were obtained on a Jasco J-715 spectropolarimeter at 20°C. The spectra were collected using a 0.1 cm path length quartz cuvette with the following measurement parameters: wavelength, 185-255 nm; step resolution, 0.1 nm; speed, 20 nm/min; accumulations, 6; bandwidth, 1 nm. The helical content of each peptide was calculated as reported previously.

α-Chymotrypsin = assay: Proteolytic stability against chymotrypsin; type: in vitro ADME; details: chymotrypsin 5 ng/μl (10 μl) added to 1 ml of 1 mM peptide, PBS 50 mM pH 7.4, 2 mM CaCl2, 25°C, HPLC, within 10 min, read-out: peptide digested within 10 min
Protocol: Peptides were dissolved in PBS (50 mM, pH = 7.4) to a final concentration of 1 mM. α-Chymotrypsin was dissolved in PBS (50 mM, containing 2 mM of CaCl2, pH = 7.4) to a final concentration of 5 ng/μl. Then the peptide solutions (1 ml) were incubated with […] (10 μl) at 25°C. Samples were taken at 0, 5, 30, 60, 90, and 120 min and reactions were quenched with 20 μL of hydrochloric acid (1 M). The solution of the trypsin peptide fragments was monitored by HPLC at different time points to determine the fraction of protease degradation.

Pharmacokinetic study = type: in vivo; details: mouse, iv, male ICR mice, 1.8 mg/kg single i.v. tail vein, plasma, UPLC-ESI-QqQ-MS, n = 5
Protocol: The peptides (1.8 mg/kg) were individually dosed in mice intravenously via tail vein injection and the blood samples were collected from the orbital venous plexus at 0, 0.5, 1, 2, 4, 6, 10, 24, and 48 h. All blood samples were centrifuged at 3000 rpm for 10 min, and the obtained plasma samples were immediately frozen at -80 °C until use. The standard curve was established as follows: Stock solutions of PMI-HIF1-1 and SPMI-HIF2-1 dissolved in acetonitrile were spiked into control plasma at final concentrations of 4000, 2000, 1000, 500, 250, 125, 62.5, 31.25, 15.625, 7.8125, 3.90625, 1.953125, and 0.9765625 ng/ml. […] Plasma samples (30 μL) were treated with 90 μL acetonitrile for protein precipitation. Then all samples were vortexed for 2 min and centrifuged for 15 min at 13000 rpm and 4°C. The supernatants were analyzed by ultraperformance liquid chromatography-electrospray ionization-tandem triple quadrupole mass spectrometry (UPLC-ESI-QqQ-MS, Shimadzu 8040). The system was equipped with an XBridge BEH C18 column (2.5 μm, 2.1×100 mm; Waters, Milford, MA, USA). The column temperature was set at 35°C. The injection volume was 4 μl. […] The plasma concentration at each time point was calculated from the extracted peak area of the same mass peaks of each peptide using the corresponding standard curve.

CC(=O)N[C@H](C(=O)N[C@@H](CO)C(=O)N[C@@H](Cc1ccccc1)C(=O)N[C@@H](C)C(=O)N[C@@H](CCC(=O)O)C(=O)N[C@@H](Cc1ccc(O)cc1)C(=O)N[C@@H](Cc1c[nH]c2ccccc12)C(=O)N[C@@H](C)C(=O)N[C@@H](CC(C)C)C(=O)N[C@@H](CC(C)C)C(=O)N[C@@H](CO)C(=O)NCCOCC(=O)N[C@@H](CC(C)C)C(=O)N[C@@H](C)C(=O)N1C[C@H](O)C[C@H]1C(=O)N[C@@H](Cc1ccc(O)cc1)C(=O)N[C@@H](CCC(C)C)C(=O)N1CCC[C@H]1C(N)=O)[C@@H](C)O [PMI-HIF1-1]
helicity (circular dichroism): 17% | IC50 (HCT116 p53^+/+ cells): > 100 µM | IC50 (HCT116 p53^-/- cells): > 100 µM | Ki (^24-108MDMX): 290 nM and 620 nM | Ki (^25-109MDM2): 450 nM | α-helicity (%) [1]: 17% | metabolised at 10 min, 1 mM (α-Chymotrypsin): > 80% | Cmax (Pharmacokinetic study; mean): 14700 ng/mL | AUC(0-inf) (Pharmacokinetic study): 8600 ng·h/mL | MRT (Pharmacokinetic study): 0.7 h | half-life (Pharmacokinetic study; read-out: half-life (t1/2) (converted)): 1.3 h
